Assay results from US10053455B2, “Diazaspiroalkaneone-substituted oxazole derivatives as spleen tyrosine kinase inhibitors” (AB SCIENCE, priority 2014, dated 2018).

Assays:
[1] = system: Salmonella typhimurium strain TA100; conditions: Salmonella typhimurium
Method: (§1) Mutagenic activity of test compounds and their metabolites (produced by rat liver S9 fraction) was evaluated in the Salmonella typhimurium strains TA100 and TA98 according to the Ames assay (Toxicology in vitro, (2001), 15: 105-114). […] The results are expressed as a mutagenicity ratio in comparison to solvent controls.
(§2) The results are expressed as a ratio of the number of colonies over the number of colonies in the negative control (DMSO).

[2] = system: Salmonella typhimurium strain TA98; assay: AMES mutagenic assay, TA98 strain; conditions: TA98, presence of S-9, 1 μg per well (positive control)
Method: as §1, §2

[3] = system: murine model of asthma; assay: Mouse model of asthma: eosinophils recruitment in bronchio-alveolar lavage; format: in vivo, Balb/c male mice
Method: Balb/c male mice, 8 weeks old, were purchased from Janvier (Le Genest-Saint-Isle; FRANCE) and bred in the animal facility for 4 weeks. Drugs were dissolved in drinking solvent (80% water; 10% Tween 80 and 10% isopropanediol). It was aliquoted and stored at −20° C. Each mouse received drugs twice a day. The weight of animals was calculated before and after treatment.
Mice, 9 weeks of age, were sensitized with 50 μg of ovalbumin (Sigma-Aldrich, Germany) adsorbed to 2 mg Al(OH)3 (Prolabo, France) and diluted in physiological saline (0.9% NaCl). Ovalbumin was injected intraperitoneally on days 1 and 7. Sensitization was followed by intranasal challenges with 10 μg of ovalbumin diluted in 0.9% NaCl, each day from day 18 to day 21. On days 17 to 21, animals treated with drugs received 100 μl of a solution at 15 mg/ml, at 7.5 mg/ml or at 3.75 mg/ml administered per os twice a day during 5 days. These treatments corresponded to concentration of 60 mg/mouse kg, 30 mg/mouse kg and 15 mg/mouse kg respectively.
Bronchio-alveolar lavage (BAL) was performed after the animals were disconnected from the FlexiVent®. The airways were lavaged with 5 ml (10 times 0.5 ml) ice cold 0.9% NaCl 2.6 mM EDTA. BAL samples were centrifuged at 1200 rpm for 5 minutes at 4° C. Pellet cells were collected and erythrocytes lysed by adding 1.5 ml deionized water for 30 seconds. After neutralization with 0.5 ml of 0.6M KCl, cells were centrifuged at 1200 rpm for 5 minutes at 4° C. BAL samples were used to count the total cell number and to perform cytospins (shandon, Pontoise). Cell types were identified by morphological criteria after Hemacolor (Merck) staining.
Mice were sensitized and challenged with ovalbumin as described in protocol assays above. The mice were distributed in groups of 5-6 animals that were treated twice daily with 7.5 to 60 mg/Kg of anti-SYK/KIT drugs (PO).

[4] = target: c-Ret mut; assay: HTRF kinase assay, c-Ret mut; format: biochemical; conditions: enzymatic determination
Method: Most of the kinases tested in this study were cloned, expressed and purified in the facilities of the inventors. They were expressed either as N-terminus hexahistidine-, hexahistidine-asparagine- or GST-tagged enzymes in a baculovirus or in a Colibacille expression system. Remaining enzymes (JAKs) were purchased from Millipore or Proqinase. For each enzyme, steady state kinetic parameters were determined and validated with known inhibitors.
The analysis of the effect of compounds on kinase activity was assessed with the HTRF® KinEASE assay (Cisbio International), an immuno-assay based on the quantification of the level of phosphorylation of a biotinylated peptide substrate using anti-phospho-specific antibody labeled with Europium (Eu^3+) cryptate. This assay comprises two steps: —an enzymatic step, during which the peptide substrate, the kinase, ATP, Mg^2+ and/or Mn^2+ are incubated with varying concentration of drug (from 0 to 10 μM); —a detection step, at the end of the reaction (stopped by addition of EDTA which chelates Mg^2+), the antibody anti-phospho peptide-Eu^3+ (emission 620 nm) and streptavidin XL-665 (emission 665 nm) are added to the reaction mix. […] Results are expressed in delta fluorescence (DF) unit defined as follow DF %=[(ratio−ratio blank)/(ratio blank)]*100, where ratio=(665 nm/620 nm)*10^4. […]

[5] = system: Murine bone marrow mast cells (BMMCs); assay: IgE-mediated mast cell degranulation assay (β-hexosaminidase release); format: cell-based, C57BL/6J mice
Method: In vitro mast cell degranulation assay monitored by released of β-hexosaminidase. Murine bone marrow mast cells (BMMCs) are obtained by flushing bone marrow cells from the femurs of C57BL/6J mice, then cultured for 3-4 weeks in RPMI containing mouse recombinant IL-3 (30 ng/ml). RBL-2H3 is a rat basophile cell line maintained in monolayer culture in EMEM supplemented with 20% FCS, 1 mM Glutamine and 1× antibiotics. Cells were sensitized overnight with 0.2 μg/ml anti-DNP-IgE (Sigma-Aldrich D8406). […] After incubation 90 min at 37° C., the reaction was quenched by addition of 100 μl of sodium carbonate buffer (0.1M Na2CO3/NaHCO3 pH 10.0). β-hexosaminidase activity was quantified by reading plate absorbance at 405 nm with reference at 620 nm using a PolarSTAR reader plate (BMG labech).
The activity of anti-SYK compounds was tested in an IgE-mediated mast cell degranulation assay. SYK has been identified to be critical for the initiation of mast cell mediator release following the aggregation of FcεRI.

[6] = system: primary human adult cardiomyocytes; assay: WST-1 cell survival/proliferation assay on human cardiomyocytes; format: cell-based; conditions: Human Cardiac Myocyte
Method: WST-1 cell survival/proliferation assay (Roche Diagnostic ref No 1644807) was performed on both primary human adult cardiomyocytes and rat neonatal cardiac myocytes.
Human cardiomyocytes were isolated from normal human ventricle tissue of the adult heart and were able to proliferate for a number of passage. Neonatal ventricular Clonetics® Rat Cardiac Myocytes (P1-3) retained their contractile property and were electrophysiologically active in culture. 1.10^4 primary rat cells or 2-2.5 10^4 adult human cells were plated per well of a 96 wells plates. The cells were allowed to adhere to the plates for 5 days before drug treatment. Treatment was initiated by addition of a 2× drug solution of ½ serial dilutions ranging from 0 to 10 μM. Cells were grown for 48 h at 37° C. and then incubated with 10 μl/well of WST-1 reagent for 4 h at 37° C. The amount of formazan dye formed was quantified by its absorbance at 450 nm using a scanning multiwell spectrophotometer (MultiSkan MS, Thermo-LabSystems, France). A blank well without cells was used as a background control for the spectrophotometer and all assays were performed in triplicate.

[7] = system: murine model of arthritis; assay: K/BxN serum mouse model of rheumatoid arthritis: ankle thickening and arthritis score; format: in vivo, C57Bl/6 mice; conditions: 50 mg/kg b.i.d.
Method: K/B×N serum pools were prepared from arthritic mice at 8 weeks of age. The mice were pre-treated with SYK inhibitors by two per os administration for two days before induction of arthritis. Arthritis was induced in the C57Bl/6 mice (8 weeks of age) by intraperitoneal injection (7.5 μl serum per g weight) at days 0 and 2.
The treatment with SYK inhibitors was continued for 13 days. The control mice were injected with solvent before the induction of arthritis and during the course of the disease. The compounds were dissolved in a solution containing 10% of Tween 80 and 10% 1-2 propandiol. It was prepared before administration.
Ankle thickening measure, being defined as the difference in ankle thickness from the day 0, was measured using a precision calliper. Arthritis/clinical score was defined by sum of scores of each lim (0 no disease; 1 mild swelling of paw or of just of few digits; 2 clear joint inflammation; 3 severe joint inflammation) maximum score=12.
K/B×N was a murine model of spontaneous rheumatoid arthritis that mimics many of the clinical and histological features of human disease with synovitis predominantly in the distal small joints. Arthritis was induced by intraperitoneal injection of arthritis serum of K/B×N mice at days 0 and 2 as described in protocol assays above. Compound 001 was tested at 15 and 50 mg/kg/day b.i.d. and compared with Masitinib at 50 mg/kg/day b.i.d., an AB Science drug candidate for treating rheumatoid arthritis (Arthritis Res Ther., (2009), 11(3):R95). Ankle thickening and arthritis score were used to monitor the in vivo activity of the compounds.

[8] = Experiment #1, 2 × 30 mg/kg/day PO

For `Nc1ccc2cc3ccccc3cc2c1` [Compound 2-AM, 2-Anthramine, reference compound], the Ratio treated/solvent [1] was 18.1 and the Ratio treated/solvent [2] was 138.1.

For `COc1cc(Nc2ncc(F)c(Nc3ccc4c(n3)NC(=O)C(C)(C)O4)n2)cc(OC)c1OC` [Compound R406], the “Percentage of Eosinophils recruitment in Bronchio-alveolar lavage (BAL)” value (from here on “Percentage of Eosinophils recruitment”) [3, 8] was −31%, the IC50 [4] was 0.5 µM and the “β-hexosaminidase activity (% control untreated cells)” value ([5]; 0.01 μM) was 78 ± 11%. For the same compound, the “β-hexosaminidase activity (% control untreated cells)” value ([5]; 0.1 μM) was 16 ± 6%, the “β-hexosaminidase activity (% control untreated cells)” value ([5]; 1 μM) was 3 ± 3% and the “% cell viable at 1 μM, Hu-CM” value ([6]; 1 μM) was −18%. For the same compound, the IC50 ([6]; 48 h, read-out: Drug-induced cytotoxicity IC50, Hu-CM) was 2.6 µM.

For `Cc1ccc(NC(=O)c2ccc(CN3CCN(C)CC3)cc2)cc1Nc1nc(-c2cccnc2)cs1` [Masitinib], the “Percentage of Eosinophils recruitment” value ([3]; Experiment #1, 2 × 7.5 mg/kg/day PO) was −15%, the “Percentage of Eosinophils recruitment” value ([3]; Experiment #1, 2 × 25 mg/kg/day PO) was −35% and the “Percentage of Eosinophils recruitment” value [3, 8] was −56%. The “Percentage of Eosinophils recruitment” value ([3]; Experiment #2, 2 × 30 mg/kg/day PO) was −47%, the “Ankle Thickening Score” value [7] was −27% P < 0.05 and the “Arthritis Score” value [7] was −15%.
